Experimental data reported in US20200278355A1, “CONJUGATED PROTEINS AND USES THEREOF” (THE SCRIPPS RESEARCH INSTITUTE, priority 2017, published 2020).

How the values were obtained:
Assay type in all cases: cell-based
Details in all cases: 20 μM
[1] = target: T1, NT5DC1 (Homo sapiens, UniProt Q5TFE4); experiment: ABPP-SILAC BPK-29yne competition in H460 cells: NT5DC1
T1 construct: Isotopically labeled H460 cell lines were generated as described above; endogenous in cells; host or cells: H460 (SILAC-labelled)
Method: (§1) Isotopically labeled H460 cell lines were generated as described above. Light and heavy cells were treated with compounds (20 μM) or DMSO, respectively, for 3 h, followed by labeling with the BPK-29yne (5 μM) for 30 min. Cells were washed once ice-cold PBS and lysed in 1% Triton 100-X dissolved in PBS with protease inhibitors (Sigma) by sonication. Lysate was adjusted to 1.5 mg ml^−1 in 500 μL. Samples were conjugated by CuAAC to Biotin-PEG4-azide (5 μL of 10 mM stocks in DMSO, final concentration=100 μM). CuAAC “click” mix contained TCEP, TBTA ligand and CuSO4 as detailed for isoTOP-ABPP sample preparation. Samples were further processed as detailed in: isoTOP-ABPP streptavidin enrichment and isoTOP-ABPP trypsin TEV digestion with the following exception: after overnight incubation at 37° C. with trypsin, tryptic digests were separated from the beads with Micro Bio-Spin columns (Bio-Rad) by centrifugation (1,000×g, 1 min). Beads were rinsed once with water (200 μL) and combined with tryptic digests. […]
(§2) The MS2 spectra data were extracted and searched using RAW Convertor and ProLuCID algorithm as described in isoTOP-ABPP peptide and protein quantification. […] Ratios of heavy/light (DMSO/test compound) peaks were calculated using in-house CIMAGE software. […] The mean R values and standard deviation for multiple biological experiments were calculated from the average ratios from each replicate. […]

[2] = target: T2, NR0B1 (Homo sapiens, UniProt P51843); experiment: ABPP-SILAC BPK-29yne competition in H460 cells: NR0B1
T2 construct: H460 cells or H460 cells expressing luciferase in a 10 cm plate were incubated with indicated compounds; endogenous in cells; host or cells: H460 (NSCLC, KEAP1-mutant)
T2 sequence (P51843 1-470): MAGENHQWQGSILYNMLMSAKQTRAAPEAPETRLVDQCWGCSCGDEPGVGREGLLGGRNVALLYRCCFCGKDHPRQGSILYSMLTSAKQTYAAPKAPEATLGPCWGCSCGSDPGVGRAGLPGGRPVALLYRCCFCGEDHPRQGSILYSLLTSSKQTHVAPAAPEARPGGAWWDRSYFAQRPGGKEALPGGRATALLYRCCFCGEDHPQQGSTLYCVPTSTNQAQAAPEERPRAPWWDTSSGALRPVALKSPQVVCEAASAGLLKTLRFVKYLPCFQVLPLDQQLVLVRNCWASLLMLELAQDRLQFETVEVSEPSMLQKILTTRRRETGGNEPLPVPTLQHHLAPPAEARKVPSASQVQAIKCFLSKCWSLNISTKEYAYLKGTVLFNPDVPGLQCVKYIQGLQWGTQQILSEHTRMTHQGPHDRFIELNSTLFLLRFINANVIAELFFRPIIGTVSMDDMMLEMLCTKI
Method: as §1, §2

[3] = target: T3, ALDH1A1 (Homo sapiens, UniProt P00352); experiment: ABPP-SILAC BPK-29yne competition in H460 cells: ALDH1A1
T3 construct: Isotopically labeled H460 cell lines were generated as described above; endogenous in cells; host or cells: H460 (SILAC-labelled)
Method: as §1, §2

T1 sequence (Q5TFE4 whole entry): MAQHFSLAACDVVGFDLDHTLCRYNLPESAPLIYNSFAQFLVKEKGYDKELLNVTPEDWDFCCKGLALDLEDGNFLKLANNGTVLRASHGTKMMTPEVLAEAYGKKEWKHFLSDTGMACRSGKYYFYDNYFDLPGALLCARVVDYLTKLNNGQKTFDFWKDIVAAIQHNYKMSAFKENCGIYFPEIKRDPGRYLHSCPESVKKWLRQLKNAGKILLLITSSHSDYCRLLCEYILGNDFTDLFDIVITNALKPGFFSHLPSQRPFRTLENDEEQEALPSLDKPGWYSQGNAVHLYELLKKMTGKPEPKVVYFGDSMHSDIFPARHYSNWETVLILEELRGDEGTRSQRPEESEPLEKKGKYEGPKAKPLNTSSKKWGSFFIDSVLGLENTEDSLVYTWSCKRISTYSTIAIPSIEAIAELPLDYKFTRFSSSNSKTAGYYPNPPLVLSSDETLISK
T3 sequence (P00352 whole entry): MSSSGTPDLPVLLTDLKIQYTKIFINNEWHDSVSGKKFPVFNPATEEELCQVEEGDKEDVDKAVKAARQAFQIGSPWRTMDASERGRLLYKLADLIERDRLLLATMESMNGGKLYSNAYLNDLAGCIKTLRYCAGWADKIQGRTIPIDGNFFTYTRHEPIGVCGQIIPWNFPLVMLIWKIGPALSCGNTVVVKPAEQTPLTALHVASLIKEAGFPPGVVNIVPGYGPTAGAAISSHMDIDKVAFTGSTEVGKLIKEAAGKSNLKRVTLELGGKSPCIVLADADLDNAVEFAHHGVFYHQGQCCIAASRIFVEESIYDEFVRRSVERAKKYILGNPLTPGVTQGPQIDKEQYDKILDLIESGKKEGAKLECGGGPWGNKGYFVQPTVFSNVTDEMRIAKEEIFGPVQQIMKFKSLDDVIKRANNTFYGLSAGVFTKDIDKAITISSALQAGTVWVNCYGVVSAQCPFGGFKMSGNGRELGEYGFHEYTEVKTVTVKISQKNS

O=C(c1ccc(N2CCOCC2)cc1)N1CCCC(N(Cc2ccccc2)C(=O)CCl)CC1 (stereo not drawn) [BPK-29, N-benzyl-2-chloro-N-(1-(4-morpholinobenzoyl)azepan-4-yl)acetamide]
BPK-29-competed BPK-29yne analysis [1]: Yes (Competed defined as showing R value ≥ 2.5 at 20 μM of test compound)
BPK-29-competed BPK-29yne analysis [2]: Yes (Competed defined as showing R value ≥ 2.5 at 20 μM of test compound)
BPK-29-competed BPK-29yne analysis [3]: Yes (Competed defined as showing R value ≥ 2.5 at 20 μM of test compound)
